For assay [1], the system named is L929. Kind of assay: Anti-proliferation MTT assay (Example 2, Table 1). The class given is cell-based. The settings on record: L929 mouse connective tissue fibroblast.
Description: (§3) A given number of cells were cultivated in 96-well plates with serial dilutions of the drugs up to 100 ng/ml. Tubulysin A is used as a positive control, whereas methanol is used as a negative control. After 5 days of incubation the metabolic activities of the cells were measured using MTT-assay as described under the methods section.
A further assay concerns SW-480. Kind of assay: Anti-proliferation MTT assay (Example 2, Table 1). The class given is cell-based. The settings on record: SW480; SW-480 human colon adenocarcinoma. In general terms: Tetrazolium dyes change colour on reduction, which living cells bring about.
The test system of assay [2] is U937. Briefly: Anti-proliferation MTT assay (Example 2, Table 1). The class given is cell-based. The settings on record: U-937; U937 human histiocytic lymphoma.
Description: as §3
Assay [3] deals with L929. Kind of assay: cells. Conditions: Mus musculus; L929, average of two measurements; read-out: IC50. The class given is cell-based, mouse. Here is the method: (§1) Cytotoxicity testing of pretubulysin (AU827), N-desmethyl-pretubulysin (AU816) and Tubulysin A and D was performed as follows: Cells were seeded at 6×10^3 cells per well of 96-well plates in 180 μl complete medium and directly treated with varying concentrations of (pre-)tubulysins diluted in methanol. Each compound was tested in duplicate as well as the internal methanol control. After 5 d incubation, 20 μl of 5 mg/ml MTT (Thiazolyl blue tetrazolium bromide) in PBS was added per well and it was further incubated for 2 h at 37° C. The medium was then discarded and cells were washed with 100 μl PBS before adding 100 μl 2-propanol/10 N HCl (250:1) in order to dissolve formazan granules.
(§2) The absorbance at 570 nm was measured using a microplate reader (EL808, Bio-Tek Instruments Inc.), and cell viability was expressed as percentage relative to the respective methanol control. IC50 values were obtained by plotting relative growth inhibition in % against the compound concentration on a logarithmic scale. After sigmoidal curve fitting IC50 values can be determined. The IC50[per ml] are shown in the following table (values represent the average of two measurements): […]

A further assay concerns A431. Briefly: cells. The class given is cell-based, human. Conditions: Homo sapiens, A-431; A431, average of two measurements; read-out: IC50. As to the method: as §1, §2
In a further assay the test system is A549. Briefly: cells. The settings on record: Homo sapiens; A549, average of two measurements; read-out: IC50. The class given is cell-based, human. Here is the method:
as §1, §2

A further assay has as its system HEK293T. Briefly: cells. Type of assay: cell-based, human. Conditions: Homo sapiens, HEK-293T, average of two measurements, read-out: IC50. Here is the method:
as §1, §2

Another assay deals with HL-60. Briefly: cells. The settings on record: Homo sapiens; HL-60, average of two measurements; read-out: IC50. Type of assay: cell-based, human. Here is the method:
as §1, §2

The test system of a further assay is HepG2. Kind of assay: cells. The class given is cell-based, human. Conditions: Homo sapiens; HepG2, average of two measurements; read-out: IC50. Here is the method:
as §1, §2

A further assay deals with K562. Kind of assay: cells. Type of assay: cell-based, human. Conditions: Homo sapiens; K562, average of two measurements; read-out: IC50. Here is the method:
as §1, §2

The test system of the next assay is KB3.1. Kind of assay: cells. The settings on record: Homo sapiens, KB 3-1; KB3.1, average of two measurements; read-out: IC50. Type of assay: cell-based, human. Here is the method:
as §1, §2

In another assay the test system is SH-SY5Y. Briefly: cells. The class given is cell-based, human. Conditions: Homo sapiens, average of two measurements, read-out: IC50. Here is the method:
as §1, §2

The test system of the next assay is SW480. Kind of assay: cells. Type of assay: cell-based, human. The settings on record: Homo sapiens; SW480, average of two measurements; read-out: IC50. As to the method: as §1, §2
In assay [4] the test system is U937. Kind of assay: cells. Type of assay: cell-based, human. The settings on record: Homo sapiens, U-937; U937, average of two measurements; read-out: IC50. As to the method:
as §1, §2

Assay [5] has as its system U-2 OS human osteosarcoma cells. Kind of assay: cells. Type of assay: cell-based. The settings on record: Homo sapiens, U2OS, average of two measurements, read-out: IC50. As to the method:
as §1
The absorbance at 570 nm was measured using a microplate reader (EL808, Bio-Tek Instruments Inc.), and cell viability was expressed as percentage relative to the respective methanol control. IC50 values were obtained by plotting relative growth inhibition in % against the compound concentration on a logarithmic scale. After sigmoidal curve fitting IC50 values can be determined. The IC50[per ml] are shown in the following table (values represent the average of two measurements):
Similarly cytotoxicity testing of Pretubulysin-related compounds in U-2 OS human osteosarcoma cells was performed and was further compared with AU 339 and AU 954, compounds mentioned in WO2008/106080 and WO2004/046170. The IC50 values are shown in the following table (values represent the average of two measurements): […]

The subject of another assay is HL-60 cells. Briefly: Apoptosis induction, DNA laddering. The settings on record: for apoptosis induction (DNA laddering): HL-60, 24 hours after treatment. Type of assay: cell-based, human. As to the method: Detection of DNA laddering: Apoptotic DNA fragmentation was investigated using the method described by Gong et al. 1-2 μg DNA were loaded into a well of a 1.7% agarose gel, separated by electrophoresis at 4 volts/cm for approximately 4 hours using 0.5×TBE buffer (0.045 M Tris-borate, 1 mM EDTA). The resulting bands were stained by ethidium bromide and detected under UV-light.
Anti-mitotic agents like epothilone (Trivedi, M. et al., Future Oncol. 4, 483-500 (2008)) disorazol (Elnakady, Y. A. et al., Biochem. Pharmacol. 67, 927-935 (2004); Irschik, H. et al., Antibiot. (Tokyo) 48, 31-35 (1995)), and tubulysin (Khalil, M. et al., Chembiochem. 7, 678-683 (2006)) are known to induce apoptosis in different cancer cell lines. A hallmark of apoptosis induced by animitotic agent is the cleavage the chromosomal DNA into distinct fragments which can be separated via gel electrophoresis to give the so called DNA-Ladder. We tested the ability of pre-tubulysin-816 and -827 to induce apoptosis in HL-60 cell lines. Growing cells were treated with different concentrations of the drugs for 24 and 48 hours. After that cells were collected with centrifugation and the chromosomal DNA was separated by using agarose gel electrophoresis as described in the methods section. The resulting DNA bands were stained with ethidium bromide and visualized under UV-light. […] However, the concentration of Pre-tubulysin-816 that was needed to induce apoptosis in HL-60 cells was about 10 folds higher than that of pre-tubulysin-827 under the same experimental conditions. In Summary pre-tubulysins 816 and 827 are novel antimitotic drugs that target the microtubules, induce G2M arrest, and induce apoptosis in cancer cell lines. However, the molecular details of apoptosis induction caused by these Drugs is still to be investigated.

Where [6] appears, read: comparison with prior art compounds.

SMILES strings stand for the structures. Values after ≈ are worked out from the molar mass of the structure shown. Where two headings read alike, the source gives them in different places.

Description for SW-480: as §3

What is called IC50 is the midpoint of a concentration-inhibition curve. With `CC[C@H](C)[C@H](NC(=O)[C@H]1CCCCN1C)C(=O)N(C)[C@H](CCc1nc(C(=O)N[C@@H](Cc2ccccc2)C[C@H](C)C(=O)O)cs1)C(C)C` [pre-tubulysin-827, pretubulysin], the IC50 came to 4.1 ng/mL (≈ 6.12 nM) in the assay on L929 [1]; 0.15 ng/mL (≈ 0.224 nM) with SW-480; 0.09 ng/mL (≈ 0.134 nM) in the assay with U937 [2]; 3.87 ng/mL (≈ 5.78 nM) in the assay with L929 [3]; 1.24 ng/mL (≈ 1.85 nM) with A431; 4.35 ng/mL (≈ 6.49 nM) with A549. Moreover, the IC50 in the assay with HEK293T was determined as 0.227 ng/mL (≈ 0.339 nM); in the assay with HL-60, 0.0142 ng/mL (≈ 0.0212 nM); with HepG2, 0.64 ng/mL (≈ 0.955 nM); in the assay on K562, 0.35 ng/mL (≈ 0.522 nM); in the assay with KB3.1, 2.32 ng/mL (≈ 3.46 nM); with SH-SY5Y, 0.61 ng/mL (≈ 0.911 nM). Further, the IC50 in the assay with SW480 turned out to be 0.21 ng/mL (≈ 0.313 nM); with U937 [4], 0.043 ng/mL (≈ 0.0642 nM); in assay [5], 0.56 ng/mL (≈ 0.836 nM); in [5] (setting [6]), 0.56 ng/mL (≈ 0.836 nM). In the assay with HL-60 cells, the “apoptosis induction (DNA laddering)” value is given as “able to induce apoptosis”.

In the case of `CC[C@H](C)[C@H](NC(=O)[C@H]1CCCCN1C)C(=O)N(C)[C@H](CCc1nc(C(=O)N[C@H](CCC(=O)O)Cc2ccccc2)cs1)C(C)C` [pre-tubulysin-816, N-desmethyl-pretubulysin], the IC50 in the assay with L929 [1] was determined as 37 ng/mL (≈ 56.4 nM); with SW-480, 1.37 ng/mL (≈ 2.09 nM); in the assay on U937 [2], 0.4 ng/mL (≈ 0.61 nM); in the assay with L929 [3] it was 40 ng/mL (≈ 60.9 nM); with A431, 0.34 ng/mL (≈ 0.518 nM); in the assay with A549, 31.2 ng/mL (≈ 47.6 nM). The IC50 stood at 1.68 ng/mL (≈ 2.56 nM) with HEK293T; 0.22 ng/mL (≈ 0.335 nM) in the assay on HL-60; 8.75 ng/mL (≈ 13.3 nM) with HepG2; 2.5 ng/mL (≈ 3.81 nM) in the assay with K562; 26.3 ng/mL (≈ 40.1 nM) in the assay on KB3.1; 2.9 ng/mL (≈ 4.42 nM) with SH-SY5Y. Moreover, the IC50 with SW480 came out at 3.16 ng/mL (≈ 4.82 nM); in the assay with U937 [4], 0.38 ng/mL (≈ 0.579 nM); in assay [5], 3.23 ng/mL (≈ 4.92 nM); in assay [5] (setting [6]), 3.16 ng/mL (≈ 4.82 nM). In the assay with HL-60 cells, the “apoptosis induction (DNA laddering)” value was “able to induce apoptosis”. The “concentration needed to induce apoptosis relative to pre-tubulysin-827” value in the assay with HL-60 cells (HL-60, same experimental conditions) was “about 10 folds”.

The values are drawn from patent US8791098B2 (priority 2008, dated 2014).
